The values that follow are results of earlier work, collected in publication PMC12084609, “Structural insights into small-molecule agonist recognition and activation of complement receptor C3aR” (The EMBO Journal, 2025).

For the series, the system named is C3aR. Details: method as in Mathieu et al, 2005; Rodriguez et al, 2024. The following applies: blockade of calcium influx attributed to β-arrestin mediated internalization; ref Mathieu et al, 2005; Rodriguez et al, 2024; cited from earlier work.

Take `NC(N)=NCCC[C@H](NC(=O)COCC(c1ccccc1)c1ccccc1)C(=O)O` [SB290157]: the “activity at C3aR” value is “potent agonist”.
